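Protocol summary: plate cells (96-well), add compound at 5 concentrations, incubate 48 h, interpolate endpoints linearly. GI50 marks 50% less growth.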 Activity calls are given as the source filed them. Cut-off read from the data, not from the text of the source: active = GI50 up to about 1.1 µM and inactive = higher.
Assays:
Assay in all cases: DTP human tumour cell line panel, 48 h
786-0 = tested on: 786-0
A549 = tested on: A549
ACHN = tested on: ACHN
CAKI-1 = tested on: CAKI-1
COLO 205 = tested on: COLO 205
DU-145 = tested on: DU-145
EKVX = tested on: EKVX
K562 = tested on: K562
M14 = tested on: M14
MDA-N = tested on: MDA-N
MOLT-4 = tested on: MOLT-4
Malme-3M = tested on: Malme-3M
NCI-H226 = tested on: NCI-H226
NCI-H23 = tested on: NCI-H23
OVCAR-3 = tested on: OVCAR-3
SN12C = tested on: SN12C
SR = tested on: SR
UACC-257 = tested on: UACC-257
HL-60 = tested on: HL-60
RXF 393 = tested on: RXF 393

Measured: GI50

Nc1nc(O)c2c(n1)NCN(CCCN1CCOCC1)C2
inactive: 786-0 > 100 µM | A549 > 100 µM | ACHN > 100 µM | CAKI-1 > 100 µM | COLO 205 > 100 µM | DU-145 > 100 µM | EKVX > 100 µM | K562 > 100 µM | M14 > 100 µM | MDA-N > 100 µM | MOLT-4 46.7 µM | Malme-3M > 100 µM | NCI-H226 > 100 µM | NCI-H23 > 100 µM | OVCAR-3 55.3 µM | SN12C > 100 µM | SR > 100 µM | UACC-257 > 100 µM

COc1ccc(-n2sc3ncc(C)cc3c2=O)cc1
inactive: 786-0 17.3 µM | A549 20.7 µM | ACHN 18.3 µM | COLO 205 16.1 µM | DU-145 21.7 µM | EKVX 18.3 µM | K562 39 µM | M14 18.7 µM | MDA-N 16.5 µM | MOLT-4 29.3 µM | Malme-3M 18.5 µM | NCI-H226 26.2 µM | NCI-H23 26.2 µM | OVCAR-3 16.9 µM | SN12C 16.1 µM | SR 35.4 µM

Cc1ccccc1Nc1nc(NNC(=O)Cc2ccccc2)nc(NNC(=O)c2ccncc2)n1
inactive: 786-0 > 10 µM | CAKI-1 > 10 µM | COLO 205 > 10 µM | DU-145 > 10 µM | EKVX > 10 µM | HL-60 > 10 µM | K562 > 10 µM | M14 > 10 µM | MDA-N > 10 µM | MOLT-4 > 10 µM | Malme-3M > 10 µM | SN12C > 10 µM | SR > 10 µM | UACC-257 > 10 µM

O=C(c1cccc2ccccc12)C1(Br)S(=O)(=O)OCCOS1(=O)=O
inactive: 786-0 > 100 µM | A549 > 100 µM | ACHN > 100 µM | CAKI-1 > 100 µM | COLO 205 > 100 µM | DU-145 > 100 µM | EKVX > 100 µM | HL-60 > 100 µM | K562 > 10 µM | M14 > 100 µM | MDA-N > 100 µM | MOLT-4 > 100 µM | Malme-3M > 100 µM | NCI-H23 > 100 µM | OVCAR-3 > 100 µM | SN12C > 100 µM | SR > 100 µM | UACC-257 > 100 µM

Cc1cc(=O)oc2cc(OCC(O)COC(C)C)ccc12 (stereo not drawn)
inactive: 786-0 > 100 µM | A549 > 100 µM | ACHN > 100 µM | CAKI-1 > 100 µM | COLO 205 > 100 µM | DU-145 > 100 µM | EKVX > 100 µM | HL-60 > 100 µM | K562 > 100 µM | M14 > 100 µM | MDA-N 91.4 µM | MOLT-4 > 100 µM | Malme-3M > 100 µM | NCI-H23 > 100 µM | OVCAR-3 > 100 µM | SN12C > 100 µM | SR > 100 µM | UACC-257 > 100 µM

CC(=O)OC1CCN(C(=O)c2ccccc2)CC1CC1(c2cc3ccccc3[nH]2)OCCO1 (stereo not drawn)
inactive: 786-0 > 100 µM | A549 50.1 µM | ACHN > 100 µM | CAKI-1 > 100 µM | COLO 205 53.1 µM | DU-145 > 100 µM | EKVX 83 µM | HL-60 24.2 µM | K562 30.1 µM | M14 83.8 µM | MDA-N 39.2 µM | MOLT-4 32.2 µM | Malme-3M > 100 µM | NCI-H226 > 100 µM | NCI-H23 69.2 µM | OVCAR-3 53.1 µM | RXF 393 > 100 µM | SN12C 84.3 µM | UACC-257 50 µM

CC(C)(C)OC(=O)NC(Cc1ccc(OC(C)(C)C)cc1)C(=O)N[C@H]1CC[C@H](C(=O)O)C1 (stereo partly drawn)
inactive: 786-0 > 100 µM | A549 > 100 µM | ACHN > 100 µM | COLO 205 > 100 µM | DU-145 > 100 µM | EKVX > 100 µM | HL-60 > 100 µM | K562 > 100 µM | M14 > 100 µM | MDA-N > 100 µM | MOLT-4 > 100 µM | NCI-H226 > 100 µM | NCI-H23 > 100 µM | SN12C > 100 µM | SR > 100 µM | UACC-257 > 100 µM

O=C(SC1=NCCN1)c1cccc2ccccc12
inactive: 786-0 67.5 µM | A549 > 100 µM | ACHN 66.8 µM | CAKI-1 > 100 µM | COLO 205 > 100 µM | DU-145 67.5 µM | EKVX 28.3 µM | HL-60 23.8 µM | K562 25.4 µM | M14 67.6 µM | MDA-N 76 µM | MOLT-4 16.9 µM | Malme-3M 78.9 µM | NCI-H226 32.3 µM | NCI-H23 63.5 µM | OVCAR-3 56.9 µM | RXF 393 53.7 µM | SN12C 64.6 µM | UACC-257 28.9 µM

C=C1C[C@@H]2O[C@H]3[C@H]4[C@@H](C[C@@H](C)[C@@H](OC(C)=O)[C@H]42)[C@@H](C)CO[C@@]3(C)[C@H](OC(=O)CCCCCCC)CC1=O
inactive: 786-0 15.7 µM | A549 18.4 µM | ACHN 16 µM | CAKI-1 19.4 µM | COLO 205 13.9 µM | DU-145 17.6 µM | EKVX 15.5 µM | K562 > 10 µM | M14 15.6 µM | MDA-N 16.8 µM | MOLT-4 18.7 µM | NCI-H226 21.2 µM | NCI-H23 20.6 µM | OVCAR-3 18.2 µM | SN12C 16 µM | SR 16 µM | UACC-257 14.4 µM

CC(=O)NNc1nc(C)c(C(/C=C/c2cccc([N+](=O)[O-])c2)=N/NC(=S)NN)s1
inactive: 786-0 > 100 µM | A549 > 100 µM | ACHN > 100 µM | CAKI-1 > 100 µM | COLO 205 > 100 µM | DU-145 > 100 µM | EKVX 52.1 µM | HL-60 > 100 µM | K562 > 100 µM | M14 > 100 µM | MDA-N > 100 µM | MOLT-4 > 100 µM | Malme-3M > 100 µM | NCI-H226 > 100 µM | NCI-H23 > 100 µM | OVCAR-3 > 100 µM | RXF 393 > 100 µM | SN12C > 100 µM | UACC-257 > 100 µM

Cc1nc2c(cc1C(=O)N/N=C/c1ccc([N+](=O)[O-])cc1)c(=O)n(C)c(=O)n2C
inactive: 786-0 26.5 µM | A549 > 100 µM | ACHN > 100 µM | CAKI-1 51.8 µM | COLO 205 > 100 µM | DU-145 94.6 µM | EKVX 91.2 µM | HL-60 > 100 µM | K562 > 100 µM | M14 > 100 µM | MDA-N > 100 µM | MOLT-4 > 100 µM | Malme-3M > 100 µM | NCI-H226 80.2 µM | NCI-H23 41.8 µM | OVCAR-3 > 100 µM | RXF 393 18.6 µM | SN12C > 100 µM | UACC-257 > 100 µM
